Patent publication US11634404B2 (priority 2016, dated 2023)
Like-named read-outs stand apart in the source and are kept apart here.

Experiments:
Type in all cases: cell-based
panel of 168 GPCRs [1] = target: panel of 168 GPCRs (Homo sapiens, UniProt O00574); conditions: GPCR CXCR6; agonist, 10 μM
panel of 168 GPCRs [2] = target: panel of 168 GPCRs (Homo sapiens, UniProt O43613); conditions: GPCR HCRTR1; agonist, 10 μM
panel of 168 GPCRs [3] = target: panel of 168 GPCRs (Homo sapiens, UniProt O95838); conditions: GPCR GLP2R; agonist, 10 μM
panel of 168 GPCRs [4] = target: panel of 168 GPCRs (Homo sapiens, UniProt P21554); conditions: GPCR CNR1; agonist, 10 μM
panel of 168 GPCRs [5] = target: panel of 168 GPCRs (Homo sapiens, UniProt P21728); conditions: GPCR DRD1; agonist, 10 μM
panel of 168 GPCRs [6] = target: panel of 168 GPCRs (Homo sapiens, UniProt P23945); conditions: GPCR FSHR; agonist, 10 μM
panel of 168 GPCRs [7] = target: panel of 168 GPCRs (Homo sapiens, UniProt P25021); conditions: GPCR HRH2; agonist, 10 μM
panel of 168 GPCRs [8] = target: panel of 168 GPCRs (Homo sapiens, UniProt P25101); conditions: GPCR EDNRA; agonist, 10 μM
panel of 168 GPCRs [9] = target: panel of 168 GPCRs (Homo sapiens, UniProt P28222); conditions: GPCR HTR1B; agonist, 10 μM
panel of 168 GPCRs [10] = target: panel of 168 GPCRs (Homo sapiens, UniProt P30550); conditions: GPCR GRPR; agonist, 10 μM
panel of 168 GPCRs [11] = target: panel of 168 GPCRs (Homo sapiens, UniProt P30872); conditions: GPCR SSTR1; agonist, 10 μM
panel of 168 GPCRs [12] = target: panel of 168 GPCRs (Homo sapiens, UniProt P30988); conditions: agonist, 10 μM
panel of 168 GPCRs [13] = target: panel of 168 GPCRs (Homo sapiens, UniProt P32238); conditions: GPCR CCKAR; agonist, 10 μM
panel of 168 GPCRs [14] = target: panel of 168 GPCRs (Homo sapiens, UniProt P35367); conditions: GPCR HRH1; agonist, 10 μM
panel of 168 GPCRs [15] = target: panel of 168 GPCRs (Homo sapiens, UniProt P35408); conditions: GPCR PTGER4; agonist, 10 μM
panel of 168 GPCRs [16] = target: panel of 168 GPCRs (Homo sapiens, UniProt P47898); conditions: GPCR HTR5A; agonist, 10 μM
panel of 168 GPCRs [17] = target: panel of 168 GPCRs (Homo sapiens, UniProt P48146); conditions: GPCR NPBWR2; agonist, 10 μM
panel of 168 GPCRs [18] = target: panel of 168 GPCRs (Homo sapiens, UniProt P49682); conditions: GPCR CXCR3; agonist, 10 μM
panel of 168 GPCRs [19] = target: panel of 168 GPCRs (Homo sapiens, UniProt P51582); conditions: GPCR P2RY4; agonist, 10 μM
panel of 168 GPCRs [20] = target: panel of 168 GPCRs (Homo sapiens, UniProt P51685); conditions: GPCR CCR8; agonist, 10 μM
panel of 168 GPCRs [21] = target: panel of 168 GPCRs (Homo sapiens, UniProt Q01726); conditions: GPCR MC1R; agonist, 10 μM
panel of 168 GPCRs [22] = target: panel of 168 GPCRs (Homo sapiens, UniProt Q8TDV5); conditions: GPCR GPR119; agonist, 10 μM
panel of 168 GPCRs [23] = target: panel of 168 GPCRs (Homo sapiens, UniProt Q92847); conditions: GPCR GHSR; agonist, 10 μM
panel of 168 GPCRs [24] = target: panel of 168 GPCRs (Homo sapiens, UniProt Q96LB2); conditions: GPCR MRGPRX1; agonist, 10 μM
panel of 168 GPCRs [25] = target: panel of 168 GPCRs (Homo sapiens, UniProt Q96P65); conditions: GPCR GPR103; agonist, 10 μM
panel of 168 GPCRs [26] = target: panel of 168 GPCRs (Homo sapiens, UniProt Q99788); conditions: GPCR CMKLR1; agonist, 10 μM
panel of 168 GPCRs [27] = target: panel of 168 GPCRs (Homo sapiens, UniProt Q9GZQ6); conditions: GPCR NPFFR1; agonist, 10 μM
panel of 168 GPCRs [28] = target: panel of 168 GPCRs (Homo sapiens, UniProt Q9H1C0); conditions: GPCR GPR92; agonist, 10 μM
panel of 168 GPCRs [29] = target: panel of 168 GPCRs (Homo sapiens, UniProt Q9H244); conditions: GPCR P2RY12; agonist, 10 μM
panel of 168 GPCRs [30] = target: panel of 168 GPCRs (Homo sapiens, UniProt Q9HBW0); conditions: GPCR EDG4; agonist, 10 μM
panel of 168 GPCRs [31] = target: panel of 168 GPCRs (Homo sapiens, UniProt Q9UKP6); conditions: GPCR UTR2; agonist, 10 μM

Sequence of panel of 168 GPCRs (Homo sapiens, UniProt P30988) (P30988 25-474 limits assumed): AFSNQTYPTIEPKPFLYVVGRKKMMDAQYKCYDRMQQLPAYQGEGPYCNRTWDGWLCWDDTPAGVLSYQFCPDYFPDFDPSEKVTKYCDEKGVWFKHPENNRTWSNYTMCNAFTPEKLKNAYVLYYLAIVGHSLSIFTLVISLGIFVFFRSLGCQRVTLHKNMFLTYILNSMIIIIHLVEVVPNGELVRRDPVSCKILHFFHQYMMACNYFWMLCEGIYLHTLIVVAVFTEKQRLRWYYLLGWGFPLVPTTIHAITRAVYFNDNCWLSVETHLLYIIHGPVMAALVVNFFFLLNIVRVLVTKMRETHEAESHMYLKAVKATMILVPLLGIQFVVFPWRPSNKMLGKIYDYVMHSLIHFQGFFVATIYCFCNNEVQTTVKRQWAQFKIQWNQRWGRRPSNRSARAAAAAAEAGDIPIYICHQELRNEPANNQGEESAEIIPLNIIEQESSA
Sequence of panel of 168 GPCRs (Homo sapiens, UniProt P23945) (P23945 18-695 limits assumed): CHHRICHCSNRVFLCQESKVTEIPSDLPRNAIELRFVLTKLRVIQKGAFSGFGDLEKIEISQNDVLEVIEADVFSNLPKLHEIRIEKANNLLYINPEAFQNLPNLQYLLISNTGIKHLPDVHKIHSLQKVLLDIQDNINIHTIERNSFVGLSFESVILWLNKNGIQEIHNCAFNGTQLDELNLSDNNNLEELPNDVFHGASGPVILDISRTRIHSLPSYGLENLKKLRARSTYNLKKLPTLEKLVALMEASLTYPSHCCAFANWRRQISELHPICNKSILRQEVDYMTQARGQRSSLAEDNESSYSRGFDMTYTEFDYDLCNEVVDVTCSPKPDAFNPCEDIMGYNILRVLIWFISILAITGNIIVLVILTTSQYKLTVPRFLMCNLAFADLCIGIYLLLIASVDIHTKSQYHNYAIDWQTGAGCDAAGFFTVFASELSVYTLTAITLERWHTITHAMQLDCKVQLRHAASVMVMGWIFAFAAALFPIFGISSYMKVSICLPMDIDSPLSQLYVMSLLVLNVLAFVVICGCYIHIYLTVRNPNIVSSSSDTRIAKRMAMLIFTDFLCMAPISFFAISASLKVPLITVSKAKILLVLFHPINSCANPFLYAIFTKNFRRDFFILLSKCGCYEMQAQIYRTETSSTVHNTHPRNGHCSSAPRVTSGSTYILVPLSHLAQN
Sequence of panel of 168 GPCRs (Homo sapiens, UniProt P25101) (P25101 21-427 limits assumed): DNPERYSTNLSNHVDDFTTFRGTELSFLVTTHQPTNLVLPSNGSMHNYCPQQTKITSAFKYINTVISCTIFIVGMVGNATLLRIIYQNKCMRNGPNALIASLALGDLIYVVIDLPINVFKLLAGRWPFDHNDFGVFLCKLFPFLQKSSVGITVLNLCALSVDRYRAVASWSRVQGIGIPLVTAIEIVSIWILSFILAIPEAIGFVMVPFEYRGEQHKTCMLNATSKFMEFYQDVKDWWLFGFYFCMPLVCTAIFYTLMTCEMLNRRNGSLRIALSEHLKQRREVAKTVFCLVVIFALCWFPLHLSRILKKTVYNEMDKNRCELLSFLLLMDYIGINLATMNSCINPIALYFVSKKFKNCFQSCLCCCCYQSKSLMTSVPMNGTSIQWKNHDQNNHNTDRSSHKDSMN

COc1ccc(OCCN2CCN(C(=O)c3cc4ccccc4[nH]3)CC2)cc1 [Compound 1, (1H-indol-2-yl)(4-(2-(4-methoxyphenoxy)ethyl)piperazin-1-yl)methanone]
β-Arrestin Recruitment activity (panel of 168 GPCRs [1]): 8% | β-Arrestin Recruitment activity (panel of 168 GPCRs [2]): 0% | β-Arrestin Recruitment activity (panel of 168 GPCRs [3]): 0% | β-Arrestin Recruitment activity (panel of 168 GPCRs [4]): 5% | β-Arrestin Recruitment activity (panel of 168 GPCRs [5]): 0% | β-Arrestin Recruitment activity (panel of 168 GPCRs [6]): 5% | β-Arrestin Recruitment activity (panel of 168 GPCRs [7]): 3% | β-Arrestin Recruitment activity (panel of 168 GPCRs [8]): 0% | β-Arrestin Recruitment activity (panel of 168 GPCRs [9]): 16% | β-Arrestin Recruitment activity (panel of 168 GPCRs [10]): 0% | β-Arrestin Recruitment activity (panel of 168 GPCRs [11]): 0% | β-Arrestin Recruitment activity (panel of 168 GPCRs [12]; GPCR CALCR RAMP2): 5% | β-Arrestin Recruitment activity (panel of 168 GPCRs [12]; GPCR CALCR RAMP3): 6% | β-Arrestin Recruitment activity (panel of 168 GPCRs [12]; GPCR CALCR): 0% | β-Arrestin Recruitment activity (panel of 168 GPCRs [13]): 0% | β-Arrestin Recruitment activity (panel of 168 GPCRs [14]): 0% | β-Arrestin Recruitment activity (panel of 168 GPCRs [15]): 6% | β-Arrestin Recruitment activity (panel of 168 GPCRs [16]): 3% | β-Arrestin Recruitment activity (panel of 168 GPCRs [17]): 3% | β-Arrestin Recruitment activity (panel of 168 GPCRs [18]): 5% | β-Arrestin Recruitment activity (panel of 168 GPCRs [19]): 13% | β-Arrestin Recruitment activity (panel of 168 GPCRs [20]): 0% | β-Arrestin Recruitment activity (panel of 168 GPCRs [21]): 5% | β-Arrestin Recruitment activity (panel of 168 GPCRs [22]): 16% | β-Arrestin Recruitment activity (panel of 168 GPCRs [23]): −3% | β-Arrestin Recruitment activity (panel of 168 GPCRs [24]): 3% | β-Arrestin Recruitment activity (panel of 168 GPCRs [25]): −9% | β-Arrestin Recruitment activity (panel of 168 GPCRs [26]): 0% | β-Arrestin Recruitment activity (panel of 168 GPCRs [27]): 4% | β-Arrestin Recruitment activity (panel of 168 GPCRs [28]): 6% | β-Arrestin Recruitment activity (panel of 168 GPCRs [29]): 4% | β-Arrestin Recruitment activity (panel of 168 GPCRs [30]): 6% | β-Arrestin Recruitment activity (panel of 168 GPCRs [31]): 0%
